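Cultured in 96-well plates, cells were exposed to test compound for 48 hours across five concentrations. TGI denotes the concentration required for complete inhibition of growth.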
What was measured:
Assay in all cases: growth of human tumour cells (NCI), 48 h
SR leukemia = system: SR leukemia
M14 melanoma = system: M14 melanoma
TK-10 renal = system: TK-10 renal
SNB-19 CNS = system: SNB-19 CNS
NCI-H460 lung = system: NCI-H460 lung
SF-539 CNS = system: SF-539 CNS
MALME-3M melanoma = system: MALME-3M melanoma
HCT-15 colon = system: HCT-15 colon
HOP-92 NSCLC = system: HOP-92 NSCLC
UACC-62 melanoma = system: UACC-62 melanoma
COLO 205 colon = system: COLO 205 colon
UACC-257 melanoma = system: UACC-257 melanoma
SK-MEL-28 melanoma = system: SK-MEL-28 melanoma
U251 CNS = system: U251 CNS
CCRF-CEM leukemia = system: CCRF-CEM leukemia

SMILES	TGI (SR leukemia) [µM]	TGI (M14 melanoma) [µM]	TGI (TK-10 renal) [µM]	TGI (SNB-19 CNS) [µM]	TGI (NCI-H460 lung) [µM]	TGI (SF-539 CNS) [µM]	TGI (MALME-3M melanoma) [µM]	TGI (HCT-15 colon) [µM]	TGI (HOP-92 NSCLC) [µM]	TGI (UACC-62 melanoma) [µM]	TGI (COLO 205 colon) [µM]	TGI (UACC-257 melanoma) [µM]	TGI (SK-MEL-28 melanoma) [µM]	TGI (U251 CNS) [µM]	TGI (CCRF-CEM leukemia) [µM]
CCOC(=O)/C(=C\NC[C@@H](C)O)c1nc2ccccc2[nH]1	84.3	> 100	> 100	> 100	> 100	> 100	> 100	> 100	> 100	> 100	> 100	> 100	> 100	–	–
Clc1ccccc1-c1nn2c(CCCCCCCCc3nnc4sc(-c5ccccc5Cl)nn34)nnc2s1	> 100	> 100	> 100	> 100	> 100	> 100	> 100	> 100	> 100	> 100	> 100	> 100	> 100	> 100	> 100
N/C(=N\Nc1cccc(Cl)c1)c1cccnc1	64.9	59.2	> 100	> 100	> 100	> 60.8	> 100	> 100	> 100	> 100	> 72.1	> 81.5	> 100	> 100	> 100
COC(=O)/N=[N+](\[O-])C(c1ccc(Cl)cc1)c1ccc(Cl)cc1	> 100	> 100	> 100	> 100	> 100	> 100	> 100	> 100	–	> 100	59.1	> 100	> 100	> 100	> 100
CC12CC(=O)OC(Cc3ccccc31)O2 (stereo unspecified)	> 100	> 100	> 100	> 100	> 100	> 100	> 100	–	> 100	> 100	> 100	> 100	> 100	> 100	> 100
c1ccc2c(c1)Sc1ccccc1N2CCCN1c2ccccc2Sc2ccccc21	> 100	> 100	> 100	> 100	> 100	> 100	> 100	> 100	> 100	> 100	> 100	> 100	> 100	> 100	–
c1ccc2nc3c(nc2c1)sc1nc2ccccc2n13	> 100	> 100	> 100	> 100	> 100	> 100	> 100	> 100	> 100	> 100	> 100	> 100	–	> 100	> 100
CCOC(=O)N(C)CCC1CC=CC(=O)C1c1cccc(OC)c1OC (stereo unspecified)	67.1	55	65.3	85.6	48.2	> 100	60.1	31.1	> 100	32.5	17.8	39.3	–	43	35.7
CN(C)Cc1cc(N=Nc2c(Cl)cccc2Cl)ccc1O	> 100	–	> 100	> 100	> 100	> 100	> 100	> 100	> 100	> 100	> 100	> 100	> 100	> 100	> 100
N#Cc1c(-c2cccc(Br)c2)cc(-c2ccc(Cl)cc2)nc1N	46.3	41.1	45.2	40.1	50.8	39.5	70.9	30	32.4	29.2	27.2	38.2	–	32.8	87.5
Cc1ccc(-n2nnc3c(NNc4ccccc4)n[nH]c(=O)c32)cc1	> 100	> 100	75.4	> 100	> 100	> 100	> 100	> 100	> 100	–	> 100	> 100	> 100	> 100	> 100
CC(=O)N1c2ccccc2C2=NN=C(N(C)C)SC21 (stereo unspecified)	21.2	7.97	21	23.5	13.3	18.3	12.9	15.6	–	–	12.9	12.7	15.3	10.8	5.31
Cc1ccc([N+](=O)[O-])cc1S(=O)(=O)Nc1ccc(C2=NOC(c3ccccc3)C2)cc1 (stereo unspecified)	12.1	18.1	–	55.5	29.1	33.4	68.2	> 100	61.2	18.3	33.8	79.6	> 100	–	59.2
COC(=O)CC(SCCO)SCCO	> 100	> 100	> 100	> 100	> 100	> 100	> 100	–	> 100	> 100	> 100	> 100	> 100	–	> 100
Nc1nc([O-])c([I+]c2ccccc2)c(=O)[nH]1	> 100	–	> 100	> 100	> 100	> 100	> 100	> 100	> 100	–	> 100	> 100	> 100	> 100	> 100
COC(=O)C1=C(O)C(C(=O)OC)[C@]2(O)[C@H](C(=O)OC)[C@H]1C[C@@H](c1ccc(Cl)cc1Cl)[C@H]2C(=O)OC (stereo partly specified)	19.2	19.1	26.2	24.3	23.2	17.5	20.6	27.6	23.8	35.3	20.9	28.7	53.6	14.4	–
